# Data reported in publication PMC10140010 (Investigational New Drugs, 2023).
# “And” between values parts separate entries of the source, which are not always exact repeats. Identical values can stand only once. Like-named read-outs stand apart in the source and are kept apart here.
# Key:
# [1] = target: SRC (Homo sapiens, UniProt P12931); experiment: Z'-LYTE kinase selectivity; assay type: biochemical
# [2] = target: ABL (Homo sapiens, UniProt P00519); experiment: Z'-LYTE kinase selectivity; assay type: biochemical
# [3] = tested on: NCI-H3122 (EML4-ALK) xenograft; experiment: NCI-H3122 cell line-derived xenograft model (tumor volume, body weight); assay type: in vivo, BALB/c nude mice; conditions: for Tumor volume, individual animals: in mm³
# Procedure: Female BALB/c nude mice (4–6 weeks old) were provided by Shanghai Sipple-Bikai Laboratory Animal Co., Ltd. and Beijing Vital River Laboratory Animal Technology Co., Ltd. The mice were housed in a specific pathogen-free environment under a 12 h light/dark cycle, and had free access to sterile animal feed and water.
# PDX and CDX models were used for in vivo studies. Patient-derived tumors tissues were divided into about 30 mm^3 and transplanted into the right dorsal subcutis. Treatment began when the tumor size reached to 200 mm^3. The mice were randomly assignied into the corresponding dosing groups (9 mice in each group). Drugs were deliverd via daily oral for 4 weeks. Tumor size was measured periodically using a digital caliper (Cal Pro, Sylvac, Switzerland), and tumor volume was calculated as 0.5 × length × width^2. For more detailed information, please refer to Supplementary materials. All procedures and protocols of xenograft models were approved by the Institutional Animal Care and Use Committee of WuXi AppTec.
# NCI-H3122 cells were re-suspended with 0.9% sodium chloride, and then 6×10^6 cells in 100 μL was inoculated subcutaneously into the right armpit of nude mice to prepare solid tumor models under sterile conditions. […] Groups were gavaged once daily with the base dose of drug for 21 days. The blank control group was given the same volume of vehicle (sterile water) injection according to the same protocol, with the dose volume of 100 μL/10 g.
# [4] = target: c-MET (Homo sapiens, UniProt P08581); experiment: Z'-LYTE kinase selectivity; assay type: biochemical
# [5] = target: EPHA2 (Homo sapiens, UniProt P29317); experiment: Z'-LYTE kinase selectivity; assay type: biochemical
# [6] = target: DYRK3 (Homo sapiens, UniProt O43781); experiment: Z'-LYTE kinase selectivity; assay type: biochemical
# [7] = target: GSK3 beta (Homo sapiens, UniProt P49841); experiment: Z'-LYTE kinase selectivity; assay type: biochemical
# [8] = target: TNIK (Homo sapiens, UniProt Q9UKE5); experiment: Z'-LYTE kinase selectivity; assay type: biochemical
# [9] = target: CDK2 (Homo sapiens, UniProt P24941); experiment: Z'-LYTE kinase selectivity; assay type: biochemical
# [10] = target: MAP4K4 (Homo sapiens, UniProt O95819); experiment: Z'-LYTE kinase selectivity; assay type: biochemical
# [11] = target: P38 alpha (Homo sapiens, UniProt Q16539); experiment: Z'-LYTE kinase selectivity; assay type: biochemical
# [12] = target: JNK1 (Homo sapiens, UniProt P45983); experiment: Z'-LYTE kinase selectivity; assay type: biochemical
# [13] = target: CK1 alpha (Homo sapiens, UniProt P48729); experiment: Z'-LYTE kinase selectivity; assay type: biochemical
# [14] = tested on: phosphorylation of ALK, AKT, ERK, STAT3 and STAT5 in NCI-H3122 tumor tissue; experiment: Phosphorylation of downstream signal molecules in tumor tissue of NCI-H3122 xenograft; assay type: in vivo, BALB/c nude mice; conditions: 8 h after administration
# Procedure: In general, the cells were exposed to the drug and were harvested for western blot analysis. SDS-PAGE was used to separate the proteins of interest, which were then transferred to a nitrocellulose (NC) filtration membrane and soaked in a blocking solution [5% non-fat dry milk in tris-buffered saline with Tween 20 (TBST)] for 1 h at room temperature. Thereafter, the membrane was probed overnight with primary antibodies at 4℃ and washed three times with TBST. The corresponding secondary antibody diluent was added, incubated at room temperature for 1 h, and washed 3 times with TBST. After adding the enhanced chemiluminescence developer to the NC filtration membrane, it is developed in the imaging system (ChemiDoc™ XRS^+, BIO-RAD). See Supplementary Table 2 for details of the antibodies used.
# In order to check how iruplinalkib exerts its anti-tumor effects in vivo, tumor tissue samples were collected at 1 and 8 h after the last dose, and the phosphorylation level of downstream signaling pathways molecules were detected.
# [15] = target: PDK1 (Homo sapiens, UniProt O15530); experiment: Z'-LYTE kinase selectivity; assay type: biochemical; conditions: read-out: IC50 PDK1
# [16] = target: T1, MATE1 (Homo sapiens, UniProt Q96FL8)
# T1 sequence (Q96FL8 1-570): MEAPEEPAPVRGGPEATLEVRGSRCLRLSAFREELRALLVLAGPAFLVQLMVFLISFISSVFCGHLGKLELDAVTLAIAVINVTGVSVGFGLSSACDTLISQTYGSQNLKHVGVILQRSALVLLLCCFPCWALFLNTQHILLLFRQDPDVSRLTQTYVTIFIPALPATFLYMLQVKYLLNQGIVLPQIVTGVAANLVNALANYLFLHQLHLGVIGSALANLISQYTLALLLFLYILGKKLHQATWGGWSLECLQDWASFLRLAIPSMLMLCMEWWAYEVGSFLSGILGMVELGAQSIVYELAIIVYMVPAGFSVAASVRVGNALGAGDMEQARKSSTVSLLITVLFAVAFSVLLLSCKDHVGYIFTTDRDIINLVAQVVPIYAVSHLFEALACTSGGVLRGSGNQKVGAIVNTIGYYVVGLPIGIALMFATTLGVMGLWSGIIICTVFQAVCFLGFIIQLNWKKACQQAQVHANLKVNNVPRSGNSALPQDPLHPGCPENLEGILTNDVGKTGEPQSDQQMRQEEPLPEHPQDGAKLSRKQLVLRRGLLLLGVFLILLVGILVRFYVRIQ
# Procedure: Using a stably transfected cell line of HEK293 expressing transporter OATP1B1, OATP1B3 or OCT2, formal substrate investigation tests were performed for three concentration gradients (30 µM, 3 µM, 0.3 µM) of iruplinalkib.
# [17] = 5mg/kg PO QD×21, day 0 after administration
# [18] = 5mg/kg PO QD×21, day 3 after administration
# [19] = 5mg/kg PO QD×21, day 6 after administration
# [20] = 5mg/kg PO QD×21, day 9 after administration
# [21] = 5mg/kg PO QD×21, day 13 after administration
# [22] = 5mg/kg PO QD×21, day 16 after administration
# [23] = 5mg/kg PO QD×21, day 20 after administration
# [24] = 2.5mg/kg PO QD×21, day 0 after administration
# [25] = 2.5mg/kg PO QD×21, day 3 after administration
# [26] = 2.5mg/kg PO QD×21, day 6 after administration
# [27] = 2.5mg/kg PO QD×21, day 9 after administration
# [28] = 2.5mg/kg PO QD×21, day 13 after administration
# [29] = 2.5mg/kg PO QD×21, day 16 after administration
# [30] = 2.5mg/kg PO QD×21, day 20 after administration
# P38 alpha, sequence (Q16539 whole entry): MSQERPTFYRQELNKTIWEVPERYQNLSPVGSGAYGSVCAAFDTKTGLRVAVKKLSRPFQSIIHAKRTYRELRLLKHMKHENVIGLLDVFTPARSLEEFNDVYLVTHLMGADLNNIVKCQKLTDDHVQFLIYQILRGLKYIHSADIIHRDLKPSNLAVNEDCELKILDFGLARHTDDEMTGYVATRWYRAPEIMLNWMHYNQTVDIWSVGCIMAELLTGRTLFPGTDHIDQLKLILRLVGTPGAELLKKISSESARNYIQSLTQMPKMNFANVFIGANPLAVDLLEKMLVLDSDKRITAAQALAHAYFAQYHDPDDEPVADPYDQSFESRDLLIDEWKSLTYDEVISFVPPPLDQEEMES
# GSK3 beta, sequence (P49841 whole entry): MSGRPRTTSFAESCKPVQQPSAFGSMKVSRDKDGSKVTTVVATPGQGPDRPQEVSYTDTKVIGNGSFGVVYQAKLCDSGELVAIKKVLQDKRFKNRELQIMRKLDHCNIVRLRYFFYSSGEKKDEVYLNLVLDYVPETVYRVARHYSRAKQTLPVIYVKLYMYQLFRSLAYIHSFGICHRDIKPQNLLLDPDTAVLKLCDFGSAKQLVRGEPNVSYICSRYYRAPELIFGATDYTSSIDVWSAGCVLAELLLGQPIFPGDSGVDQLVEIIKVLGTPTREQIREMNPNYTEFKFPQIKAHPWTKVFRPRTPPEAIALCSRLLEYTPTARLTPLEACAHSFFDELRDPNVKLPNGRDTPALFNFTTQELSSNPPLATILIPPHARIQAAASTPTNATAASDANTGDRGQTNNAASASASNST
# MAP4K4, sequence (O95819 whole entry): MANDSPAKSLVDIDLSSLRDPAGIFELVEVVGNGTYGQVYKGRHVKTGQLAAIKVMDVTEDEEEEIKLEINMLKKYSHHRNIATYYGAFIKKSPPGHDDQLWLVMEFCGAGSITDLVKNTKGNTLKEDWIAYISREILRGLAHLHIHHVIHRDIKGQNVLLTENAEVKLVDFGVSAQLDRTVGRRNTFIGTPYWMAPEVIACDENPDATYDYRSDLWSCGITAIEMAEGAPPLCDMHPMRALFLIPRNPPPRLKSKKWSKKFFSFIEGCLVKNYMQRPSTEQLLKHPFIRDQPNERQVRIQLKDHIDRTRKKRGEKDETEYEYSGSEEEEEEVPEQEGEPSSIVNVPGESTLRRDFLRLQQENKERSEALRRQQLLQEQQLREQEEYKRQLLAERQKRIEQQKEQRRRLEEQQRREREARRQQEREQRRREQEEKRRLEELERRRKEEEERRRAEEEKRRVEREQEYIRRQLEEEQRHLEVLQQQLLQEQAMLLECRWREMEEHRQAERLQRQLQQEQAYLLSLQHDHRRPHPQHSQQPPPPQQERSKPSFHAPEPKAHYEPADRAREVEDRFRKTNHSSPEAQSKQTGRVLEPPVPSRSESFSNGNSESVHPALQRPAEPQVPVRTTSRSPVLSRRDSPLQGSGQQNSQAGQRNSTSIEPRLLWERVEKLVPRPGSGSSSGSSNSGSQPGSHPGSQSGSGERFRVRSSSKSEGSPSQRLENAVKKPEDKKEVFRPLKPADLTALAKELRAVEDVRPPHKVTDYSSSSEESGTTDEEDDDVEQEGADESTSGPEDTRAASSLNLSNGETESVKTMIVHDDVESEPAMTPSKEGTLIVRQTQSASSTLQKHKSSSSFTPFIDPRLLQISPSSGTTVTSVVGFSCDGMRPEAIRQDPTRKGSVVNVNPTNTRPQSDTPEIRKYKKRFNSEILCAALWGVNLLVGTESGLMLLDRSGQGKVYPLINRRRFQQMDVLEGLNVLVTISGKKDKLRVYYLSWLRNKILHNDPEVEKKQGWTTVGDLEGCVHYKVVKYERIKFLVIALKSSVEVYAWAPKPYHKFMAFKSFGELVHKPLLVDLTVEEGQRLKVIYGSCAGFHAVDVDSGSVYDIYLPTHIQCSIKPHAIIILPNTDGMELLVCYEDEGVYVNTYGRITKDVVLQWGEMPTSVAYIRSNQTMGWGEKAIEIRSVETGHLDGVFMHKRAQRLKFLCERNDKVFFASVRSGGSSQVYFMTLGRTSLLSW
# SRC, sequence (P12931 whole entry): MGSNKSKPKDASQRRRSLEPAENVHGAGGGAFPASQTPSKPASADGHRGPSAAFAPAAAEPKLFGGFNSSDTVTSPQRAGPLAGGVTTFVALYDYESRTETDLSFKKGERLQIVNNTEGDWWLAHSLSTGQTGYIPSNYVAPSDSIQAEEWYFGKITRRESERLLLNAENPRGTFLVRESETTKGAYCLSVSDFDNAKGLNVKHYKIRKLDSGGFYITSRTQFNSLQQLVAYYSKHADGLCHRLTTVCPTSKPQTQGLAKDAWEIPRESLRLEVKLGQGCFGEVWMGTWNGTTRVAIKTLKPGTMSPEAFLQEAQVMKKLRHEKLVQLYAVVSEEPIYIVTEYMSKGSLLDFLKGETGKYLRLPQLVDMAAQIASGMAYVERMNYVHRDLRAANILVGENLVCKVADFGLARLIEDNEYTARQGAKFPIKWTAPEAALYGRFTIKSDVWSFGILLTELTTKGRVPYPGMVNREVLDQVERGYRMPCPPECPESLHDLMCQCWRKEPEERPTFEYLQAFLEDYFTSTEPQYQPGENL
# ABL, sequence (P00519 whole entry): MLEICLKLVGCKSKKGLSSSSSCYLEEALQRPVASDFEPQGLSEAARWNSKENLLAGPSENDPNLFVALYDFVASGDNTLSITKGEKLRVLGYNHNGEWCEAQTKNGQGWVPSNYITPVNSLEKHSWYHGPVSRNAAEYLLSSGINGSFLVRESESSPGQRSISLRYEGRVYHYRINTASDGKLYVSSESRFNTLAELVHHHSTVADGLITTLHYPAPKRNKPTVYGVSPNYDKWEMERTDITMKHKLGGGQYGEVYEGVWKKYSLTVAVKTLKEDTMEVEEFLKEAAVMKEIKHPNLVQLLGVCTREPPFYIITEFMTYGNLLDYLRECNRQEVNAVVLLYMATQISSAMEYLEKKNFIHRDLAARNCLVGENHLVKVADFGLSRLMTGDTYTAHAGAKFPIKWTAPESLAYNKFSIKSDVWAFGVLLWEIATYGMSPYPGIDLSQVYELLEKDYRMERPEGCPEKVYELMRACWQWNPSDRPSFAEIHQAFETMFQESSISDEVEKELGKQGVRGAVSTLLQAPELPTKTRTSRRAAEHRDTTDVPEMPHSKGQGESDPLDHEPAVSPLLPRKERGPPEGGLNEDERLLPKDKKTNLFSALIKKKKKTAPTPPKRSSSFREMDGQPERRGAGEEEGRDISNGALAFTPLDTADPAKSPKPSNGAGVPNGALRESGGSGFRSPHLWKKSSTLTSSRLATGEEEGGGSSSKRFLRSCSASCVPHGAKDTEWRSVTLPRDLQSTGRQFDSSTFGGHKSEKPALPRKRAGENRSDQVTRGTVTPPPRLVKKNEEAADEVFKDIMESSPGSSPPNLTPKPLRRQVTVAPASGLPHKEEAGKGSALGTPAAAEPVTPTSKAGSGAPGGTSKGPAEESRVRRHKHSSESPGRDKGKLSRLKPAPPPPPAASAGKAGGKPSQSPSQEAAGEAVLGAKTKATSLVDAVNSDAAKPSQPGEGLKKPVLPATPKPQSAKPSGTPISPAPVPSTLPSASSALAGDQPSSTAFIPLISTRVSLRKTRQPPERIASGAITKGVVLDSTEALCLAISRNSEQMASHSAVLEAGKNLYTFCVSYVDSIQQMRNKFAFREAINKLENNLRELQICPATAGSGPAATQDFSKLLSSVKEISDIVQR
# PDK1, sequence (O15530 whole entry): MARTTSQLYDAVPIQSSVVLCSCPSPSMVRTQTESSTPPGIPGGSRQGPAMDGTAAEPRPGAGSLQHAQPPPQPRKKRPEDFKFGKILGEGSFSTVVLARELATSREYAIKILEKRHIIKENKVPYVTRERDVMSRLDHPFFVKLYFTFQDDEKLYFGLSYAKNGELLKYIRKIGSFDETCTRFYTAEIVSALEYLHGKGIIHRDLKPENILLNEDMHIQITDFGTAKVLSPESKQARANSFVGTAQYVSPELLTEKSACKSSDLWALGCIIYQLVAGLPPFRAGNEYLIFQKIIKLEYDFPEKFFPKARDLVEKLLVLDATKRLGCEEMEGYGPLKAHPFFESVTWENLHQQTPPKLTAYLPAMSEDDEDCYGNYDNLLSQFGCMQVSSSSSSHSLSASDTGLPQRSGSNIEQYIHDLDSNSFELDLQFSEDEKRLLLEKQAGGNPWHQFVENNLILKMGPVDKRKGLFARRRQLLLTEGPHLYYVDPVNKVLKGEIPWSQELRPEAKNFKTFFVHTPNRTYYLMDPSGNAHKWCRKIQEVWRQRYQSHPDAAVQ
# JNK1, sequence (P45983 whole entry): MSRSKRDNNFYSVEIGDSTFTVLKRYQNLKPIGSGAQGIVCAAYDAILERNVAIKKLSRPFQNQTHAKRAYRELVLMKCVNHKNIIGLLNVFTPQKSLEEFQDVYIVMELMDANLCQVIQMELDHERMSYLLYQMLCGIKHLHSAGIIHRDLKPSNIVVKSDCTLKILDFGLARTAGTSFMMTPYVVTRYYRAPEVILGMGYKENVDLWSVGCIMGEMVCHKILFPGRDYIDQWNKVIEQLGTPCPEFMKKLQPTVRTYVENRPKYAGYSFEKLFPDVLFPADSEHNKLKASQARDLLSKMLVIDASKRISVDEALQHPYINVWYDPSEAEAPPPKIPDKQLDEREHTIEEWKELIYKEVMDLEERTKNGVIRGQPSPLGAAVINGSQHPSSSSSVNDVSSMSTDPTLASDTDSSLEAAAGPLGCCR
# CK1 alpha, sequence (P48729 whole entry): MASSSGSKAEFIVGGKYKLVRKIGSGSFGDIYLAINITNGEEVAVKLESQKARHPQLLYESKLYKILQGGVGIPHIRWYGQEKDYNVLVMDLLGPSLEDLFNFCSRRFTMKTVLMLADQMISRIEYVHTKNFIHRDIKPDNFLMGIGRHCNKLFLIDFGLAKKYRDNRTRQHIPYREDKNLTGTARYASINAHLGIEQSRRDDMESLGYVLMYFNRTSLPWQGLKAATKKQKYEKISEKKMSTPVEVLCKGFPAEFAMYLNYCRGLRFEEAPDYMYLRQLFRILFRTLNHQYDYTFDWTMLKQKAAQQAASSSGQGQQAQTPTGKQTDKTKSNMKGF
smiles,measurement,setting,value
"COc1cc(N2CCC(N3CCN(C)CC3)CC2)ccc1Nc1ncc(Cl)c(Nc2ccccc2P(C)(C)=O)n1 [Brigatinib, reference compound]",IC50,[1],0.95 ± 0.309 µM
same,IC50,[2],0.596 ± 0.052 µM
same,Tumor volume Mean,[3]; [17],174 mm³
same,"Tumor volume, individual animals",[3]; [17],116 and 221 and 152 and 134 and 154 and 194 and 207 and 229
same,Tumor volume Mean,[3]; [18],252 mm³
same,"Tumor volume, individual animals",[3]; [18],235 and 195 and 320 and 239 and 193 and 260 and 247 and 262 and 319
same,Tumor volume Mean,[3]; [19],352 mm³
same,"Tumor volume, individual animals",[3]; [19],344 and 246 and 444 and 301 and 248 and 364 and 372 and 370 and 474
same,Tumor volume Mean,[3]; [20],461 mm³
same,"Tumor volume, individual animals",[3]; [20],473 and 337 and 548 and 418 and 289 and 518 and 482 and 535 and 555
same,Tumor volume Mean,[3]; [21],502 mm³
same,"Tumor volume, individual animals",[3]; [21],454 and 241 and 654 and 480 and 315 and 575 and 637 and 495 and 666
same,Tumor volume Mean,[3]; [22],547 mm³
same,"Tumor volume, individual animals",[3]; [22],521 and 320 and 707 and 541 and 350 and 627 and 656 and 464 and 737
same,Tumor volume Mean,[3]; [23],612 mm³
same,"Tumor volume, individual animals",[3]; [23],710 and 414 and 729 and 637 and 412 and 711 and 707 and 501 and 687
same,IC50,[4],1.83 ± 0.231 µM
same,IC50,[5],> 10 µM
same,IC50,[6],> 10 µM
same,IC50,[7],> 10 µM
same,IC50,[8],2.37 ± 1.33 µM
same,IC50,[9],1.51 ± 0.554 µM
same,IC50,[10],1.68 ± 0.762 µM
same,IC50,[11],> 10 µM
same,IC50,[12],1.52 ± 0.733 µM
same,IC50,[13],> 10 µM
same,levels of phosphorylation of STAT3 and STAT5 in tumor tissue,[14],decreased
same,IC50,[15],> 10 µM
COc1cc(N2CCC3(CCN(C)CC3)CC2)ccc1Nc1ncc(Cl)c(Nc2ccccc2P(C)(C)=O)n1 [Iruplinalkib],IC50,[1],1.68 ± 0.872 µM
same,IC50,[2],0.576 ± 0.108 µM
same,Tumor volume Mean,[3]; [24],176 mm³
same,"Tumor volume, individual animals",[3]; [24],188 and 164 and 230 and 150 and 236 and 136 and 182 and 147
same,Tumor volume Mean,[3]; [25],295 mm³
same,"Tumor volume, individual animals",[3]; [25],324 and 257 and 368 and 284 and 366 and 229 and 267 and 234
same,Tumor volume Mean,[3]; [26],449 mm³
same,"Tumor volume, individual animals",[3]; [26],431 and 392 and 594 and 476 and 695 and 327 and 410 and 337 and 384
same,Tumor volume Mean,[3]; [27],606 mm³
same,"Tumor volume, individual animals",[3]; [27],596 and 541 and 738 and 570 and 1128 and 398 and 498 and 499 and 486
same,Tumor volume Mean,[3]; [28],694 mm³
same,"Tumor volume, individual animals",[3]; [28],630 and 635 and 849 and 718 and 1127 and 586 and 573 and 580 and 545
same,Tumor volume Mean,[3]; [29],887 mm³
same,"Tumor volume, individual animals",[3]; [29],729 and 821 and 1141 and 926 and 1167 and 805 and 883 and 751 and 758.9
same,Tumor volume Mean,[3]; [30],972 mm³
same,"Tumor volume, individual animals",[3]; [30],760 and 976 and 1087 and 1021 and 1125 and 811 and 1040 and 1032 and 895
same,Tumor volume Mean,[3]; [17],177 mm³
same,"Tumor volume, individual animals",[3]; [17],233 and 239 and 173 and 121 and 155 and 235
same,Tumor volume Mean,[3]; [18],260 mm³
same,"Tumor volume, individual animals",[3]; [18],306 and 299 and 256 and 223 and 292 and 296
same,Tumor volume Mean,[3]; [19],371 mm³
same,"Tumor volume, individual animals",[3]; [19],537 and 487 and 339 and 249 and 357 and 438
same,Tumor volume Mean,[3]; [20],430 mm³
same,"Tumor volume, individual animals",[3]; [20],567 and 541 and 407 and 332 and 403 and 534
same,Tumor volume Mean,[3]; [21],531 mm³
same,"Tumor volume, individual animals",[3]; [21],666 and 699 and 523 and 388 and 515
same,Tumor volume Mean,[3]; [22],624 mm³
same,"Tumor volume, individual animals",[3]; [22],718 and 880 and 646 and 506 and 603
same,Tumor volume Mean,[3]; [23],727 mm³
same,"Tumor volume, individual animals",[3]; [23],811 and 875 and 702 and 717 and 714
same,Tumor volume Mean,"[3]; 10mg/kg PO QD×21, day 0 after administration",174 mm³
same,Tumor volume Mean,"[3]; 10mg/kg PO QD×21, day 3 after administration",190 mm³
same,Tumor volume Mean,"[3]; 10mg/kg PO QD×21, day 6 after administration",204 mm³
same,Tumor volume Mean,"[3]; 10mg/kg PO QD×21, day 9 after administration",240 mm³
same,Tumor volume Mean,"[3]; 10mg/kg PO QD×21, day 13 after administration",243 mm³
same,Tumor volume Mean,"[3]; 10mg/kg PO QD×21, day 16 after administration",218 mm³
same,Tumor volume Mean,"[3]; 10mg/kg PO QD×21, day 20 after administration",233 mm³
same,IC50,[4],2.94 ± 0.232 µM
same,IC50,[5],> 10 µM
same,"Uptake transport activity, Net value",[16]; 0.5 μM,532.9 pmol/mg protein/min
same,"Uptake transport activity, Net value",[16]; 5 μM,55.01 pmol/mg protein/min
same,"Uptake transport activity, Net value",[16]; 50 μM,-114.5 pmol/mg protein/min
same,IC50,[6],8.01 ± 0.583 µM
same,IC50,[7],> 10 µM
same,IC50,[8],3.21 ± 1.54 µM
same,IC50,[9],1.56 ± 1.13 µM
same,IC50,[10],1.84 ± 0.679 µM
same,IC50,[11],> 10 µM
same,IC50,[12],2.04 ± 1.17 µM
same,IC50,[13],> 10 µM
same,levels of phosphorylation of STAT3 and STAT5 in tumor tissue,[14],decreased
same,IC50,[15],> 10 µM
